Source: PubChem BioAssay (NCI)
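Dose response: 5 concentrations. Exposure: 48 h. Format: 96-well plates. Endpoint: linear interpolation; highest concentration if not reached. GI50 marks 50% less growth. TGI: total growth inhibition.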

How the values were obtained:
Experiment in all cases: inhibition of tumour cell growth, NCI panel, 48 h
[1] = test system: OVCAR-8 ovarian
[2] = test system: M14 melanoma
[3] = test system: UO-31 renal
[4] = test system: A498 renal
[5] = test system: SF-268 CNS
[6] = test system: RPMI-8226 leukemia
[7] = test system: CCRF-CEM leukemia
[8] = test system: SK-OV-3 ovarian
[9] = test system: MDA-MB-231 breast
[10] = test system: K-562 leukemia

COC(=O)C1=C(C(=O)OC)C2OC1c1cc3ccccc3cc12
TGI [1]: 13.6 µM | TGI [2]: 4.83 µM | TGI [3]: 2.91 µM | TGI [4]: 36.7 µM | TGI [5]: 34.9 µM | TGI [6]: 5.41 µM | TGI [7]: > 100 µM | TGI [8]: 33 µM | TGI [9]: 33.7 µM

O=C(NNC(=S)Nc1ccccc1)c1ccccn1
GI50 [1]: 2.69 µM | TGI [1]: > 100 µM | GI50 [2]: 2.1 µM | TGI [2]: 12.3 µM | GI50 [3]: 0.95 µM | TGI [3]: 16.9 µM | GI50 [4]: 4.55 µM | TGI [4]: > 100 µM | GI50 [10]: 3.95 µM | TGI [10]: > 100 µM | GI50 [5]: 2.66 µM | TGI [5]: > 100 µM | GI50 [6]: 2.69 µM | TGI [6]: 38.4 µM | GI50 [7]: 2.18 µM | TGI [7]: 25.3 µM | GI50 [8]: 7.33 µM | TGI [8]: > 100 µM | GI50 [9]: 3.85 µM | TGI [9]: > 100 µM

CCOC(=O)c1cc(-c2ccc(OC)c(OC)c2)[nH]c1N/N=C/c1c(Cl)cccc1Cl
GI50 [1]: 3.69 µM | TGI [1]: > 100 µM | GI50 [2]: 2.32 µM | TGI [2]: 14.9 µM | GI50 [3]: 4.32 µM | TGI [3]: 37.6 µM | GI50 [4]: 1.03 µM | TGI [4]: 7.77 µM | GI50 [10]: 1.69 µM | TGI [10]: > 100 µM | GI50 [5]: 2.29 µM | TGI [5]: 39.9 µM | GI50 [6]: 3.31 µM | TGI [6]: > 37.5 µM | GI50 [7]: 2.22 µM | TGI [7]: > 100 µM | GI50 [8]: 1.85 µM | TGI [8]: 17.6 µM | GI50 [9]: 2.9 µM | TGI [9]: 8.84 µM

CC1CCc2c(c(CC3CC(=O)NC(=O)C3)nn2-c2ccccc2)C1 (stereo not drawn)
TGI [1]: > 100 µM | TGI [2]: > 100 µM | TGI [3]: > 100 µM | TGI [4]: > 100 µM | TGI [10]: > 100 µM | TGI [5]: > 100 µM | TGI [6]: > 100 µM | TGI [7]: > 100 µM | TGI [8]: > 100 µM | TGI [9]: > 100 µM

CC(O)CN1c2ccccc2Sc2ccc(Cl)cc21 (stereo not drawn)
TGI [1]: > 10 µM | TGI [2]: > 10 µM | TGI [3]: > 10 µM | TGI [4]: > 10 µM | TGI [10]: > 10 µM | TGI [5]: > 10 µM | TGI [6]: > 10 µM | TGI [7]: > 10 µM | TGI [8]: > 10 µM | TGI [9]: > 10 µM

O=C(Nc1nc(-c2ccc(Cl)cc2)nc2c1sc(=S)n2-c1ccccc1)C(F)(F)F
GI50 [1]: 4.21 µM | TGI [1]: 21.1 µM | GI50 [2]: 7.61 µM | TGI [2]: > 100 µM | GI50 [3]: 1.87 µM | TGI [3]: 4.04 µM | GI50 [4]: 1.77 µM | TGI [4]: 7.8 µM | GI50 [10]: 6.37 µM | TGI [10]: > 100 µM | GI50 [5]: 4.45 µM | TGI [5]: 24.3 µM | GI50 [6]: 8.37 µM | TGI [6]: > 100 µM | GI50 [7]: > 100 µM | TGI [7]: > 100 µM | GI50 [8]: 2.71 µM | TGI [8]: 8.1 µM | GI50 [9]: 3.64 µM | TGI [9]: 12.5 µM

C=C1CCC2C3(C)COC(c4ccc(Cl)cc4)OC3CCC2(C)C1/C=C/C1=CCOC1=O (stereo not drawn)
GI50 [1]: 4.07 µM | TGI [1]: > 100 µM | GI50 [2]: 27.2 µM | TGI [2]: > 100 µM | GI50 [3]: > 100 µM | TGI [3]: > 100 µM | GI50 [4]: 2.18 µM | TGI [4]: 31.5 µM | TGI [10]: > 100 µM | GI50 [5]: 19.9 µM | TGI [5]: > 100 µM | GI50 [6]: 0.602 µM | TGI [6]: > 100 µM | GI50 [7]: 1.56 µM | TGI [7]: 12.6 µM | GI50 [8]: 16.7 µM | TGI [8]: 74.5 µM | GI50 [9]: 6.68 µM | TGI [9]: > 100 µM

CC1=NN(C(=O)c2ccncc2)C(=O)C1N=Nc1ccc2ccccc2c1 (stereo not drawn)
TGI [1]: > 100 µM | TGI [2]: > 96.2 µM | TGI [3]: > 100 µM | TGI [4]: > 100 µM | TGI [10]: > 70.7 µM | TGI [5]: > 100 µM | TGI [6]: > 100 µM | TGI [7]: > 100 µM | TGI [8]: > 100 µM | TGI [9]: > 100 µM
